One series can be described thus: in vitro. Particulars: isolated enzyme proteinase k, pH 7.4. The series is classed as in vitro ADME. The protocol:
(§1) Stocks of 20 μM peptide in 200 μL total volume (10 mM Tris-base, 10 mM NaCl, pH 7.4) were supplemented with 5 μM CaCl2) and 30 uL removed for the untreated T0 sample. Proteinase K (ProtK, Bioshop) was then added to a final concentration of 100 μg/mL. Samples were incubated at 37° C. and 30 μL removed after each time point and protease activity blocked by the addition of 10 mM PMSF (200 mM stock dissolved in isopropanol). Protease inactivated samples were frozen at −20° C. until further use. Digestions were repeated three times. Frozen samples were supplemented with 8 μL sample loading buffer (4× NuPAGE, ThermoFisher Scientific), boiled ([…]) for 10 minutes, and centrifuged (12 000 rpm, 10 min) prior to loading the gel (12% NuPAGE Bis-Tris (ThermoFisher Scientific) with MES running buffer). Gels were run at 200 V for […] and stained using Coomassie Brilliant Blue dye. Densitometry of bands was determined using ImageJ software (40) with back ground subtraction. All samples were normalized to their respective untreated sample (T0).

The next series deals with T1, Proteinase K (ProtK) (Parengyodontium album, UniProt P06873).
T1 construct: purchased Bioshop
Nature of the series: in vitro. It counts as in vitro ADME. The protocol: as §1

A further series addresses T2, GLP2R (Homo sapiens, UniProt O95838).
T2 construct: expressed in transfected cells; host or cells: HEK293
T2 sequence (O95838 1-553): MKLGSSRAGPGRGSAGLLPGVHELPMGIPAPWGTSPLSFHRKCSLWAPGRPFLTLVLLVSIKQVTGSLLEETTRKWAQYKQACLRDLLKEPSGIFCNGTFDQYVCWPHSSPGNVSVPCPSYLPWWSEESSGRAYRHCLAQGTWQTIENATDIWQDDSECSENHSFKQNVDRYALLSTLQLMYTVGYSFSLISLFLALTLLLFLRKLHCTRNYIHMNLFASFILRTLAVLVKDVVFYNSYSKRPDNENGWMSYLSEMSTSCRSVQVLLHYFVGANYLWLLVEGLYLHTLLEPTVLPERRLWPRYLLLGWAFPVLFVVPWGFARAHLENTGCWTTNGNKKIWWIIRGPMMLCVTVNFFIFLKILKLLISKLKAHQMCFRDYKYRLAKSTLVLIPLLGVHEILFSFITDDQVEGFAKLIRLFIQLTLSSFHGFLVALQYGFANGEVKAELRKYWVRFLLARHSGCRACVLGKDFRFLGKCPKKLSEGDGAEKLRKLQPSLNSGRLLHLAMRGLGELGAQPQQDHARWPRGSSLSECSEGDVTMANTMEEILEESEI
Nature of the series: CRE-luciferase reporter assay in HEK293 cells stably expressing GLP2R. It counts as cell-based. The protocol:
This activates protein kinase A (PKA) to phosphorylate and activate cAMP response element-binding protein (CREB). […] All of the (L)-GLP-2 is degraded in about 1 hr, while more than 90% of the (D)-analog is still detectable at 6 hours.
FIG. 14 is a series of charts and experiments showing the activity and protease degradation of (L)- and (D)-GLP2 polypeptides. (A) HEK293 cells stably expressing GLP2R and CRE-luciferase were stimulated with different concentrations of (L)- and (D)-GLP2 peptides. Luciferase activity was measured. The experiments were performed in triplicate. (B) Sample gel images of (L) and (D)-GLP-2 peptides treated with Proteinase K (ProtK) over 5 hours. Gels were stained with Coomassie Brilliant Blue dye and band densitometry calculated using ImageJ (40) with background subtraction. (C) Quantification of remaining peptide post ProtK treatment in 60 min intervals. Intensities of peptide bands were normalized to the intensity of the untreated peptide (T0) and converted to a percentage relative to T0. […] Error bars are reporting standard error. Data represent the average of 3 independent experiments.
On the technique in general: A reporter such as luciferase makes a cellular process visible.

Square brackets hold non-standard residues; d marks the D form. Peptide text beside a SMILES is read from it. Where only a bound is given, the exact number is not on record here.

The share remaining is the share of the starting amount still present when the sample was taken. A higher share remaining goes with less turnover.

T1 sequence (P06873 106-384): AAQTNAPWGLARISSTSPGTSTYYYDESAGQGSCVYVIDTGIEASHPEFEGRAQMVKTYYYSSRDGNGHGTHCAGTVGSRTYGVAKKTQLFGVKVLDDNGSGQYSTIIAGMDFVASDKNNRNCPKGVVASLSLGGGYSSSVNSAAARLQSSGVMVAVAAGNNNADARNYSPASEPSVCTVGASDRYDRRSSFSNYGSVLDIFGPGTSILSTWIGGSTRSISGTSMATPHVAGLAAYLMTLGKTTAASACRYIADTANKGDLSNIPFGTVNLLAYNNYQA

Take `CC[C@@H](C)[C@@H](NC(=O)[C@@H](C)NC(=O)[C@@H](C)NC(=O)[C@H](NC(=O)[C@@H](C)NC(=O)[C@@H](Cc1ccccc1)NC(=O)[C@@H](Cc1c[nH]c2ccccc12)NC(=O)[C@@H](Cc1ccccc1)NC(=O)CNC(=O)[C@H](NC(=O)[C@@H](CCCNC(=N)N)NC(=O)[C@@H](CC(=O)O)NC(=O)[C@H](NC(=O)[C@@H](CCCCN)NC(=O)[C@H](NC(=O)[C@H](NC(=O)[C@H](N)CC(=O)O)[C@H](C)O)[C@H](C)CC)[C@H](C)O)[C@H](C)CC)C(C)C)C(=O)N[C@H](CC(C)C)C(=O)N[C@@H](C(=O)N[C@H](CC(C)C)C(=O)N[C@H](CC(C)C)C(=O)N[C@H](CCCCN)C(=O)N[C@H](CCSC)C(=O)N[C@H](CCSC)C(=O)N[C@H](CCC(=O)O)C(=O)N[C@H](CCC(=O)O)C(=O)N[C@H](Cc1ccccc1)C(=O)N[C@@H](C(=O)NCC(=O)N[C@H](CC(=O)O)C(=O)N[C@H](C)C(=O)N[C@H](Cc1c[nH]cn1)C(=O)O)C(C)C)C(C)C` [(D)-GLP2] (H-[dD][dT][dI][dK][dT][dD][dR][dI]G[dF][dW][dF][dA][dV][dA][dA][dI][dL][dV][dL][dL][dK][dM][dM][dE][dE][dF][dV]G[dD][dA][dH]-OH; N-terminus and C-terminus assumed): in “in vitro”, the fraction remaining at 6 h, 20 µM is above 90%. Further, the “degradation by ProtK (in words)” value on Proteinase K (ProtK) was “persists after 5 hours”. Also, the “activation of GLP2R, potency and efficacy (in words)” value at GLP2R is “potency and efficacy comparable to (L)-GLP-2”.
